Experiments:
[1] = Photostability under visible light; type: physicochemical; conditions: after 1 day of exposure to visible light, 10 μg/mL
Description: The effect of the light exposure on the degradation of ITM or IM was determined with visible light at room temperature. The ICG and ICG-loaded micelles were diluted with distilled water to a final concentration of 10 μg/mL and were loaded into a 12-well plate. The fluorescence intensity was measured for up to 6 days. After incubation, the remaining fluorescence of each sample was measured using a spectrofluorometer with excitation and emission wavelengths of 745 nm and 840 nm, respectively. For the quantitative analysis, we normalized the fluorescence signal intensity.

[2] = Plasma pharmacokinetic study; type: in vivo, BALB/c-nude mice; conditions: 0.5 mg/kg ICG
Description: Normal BALB/c-nude mice were administered intravenously with ITM or free ICG solution at an dose of 10 μg, respectively. At designed time points of 5 min, 10 min, 30 min, 1 h, 2 h, 3 h, 4 h, 8 h and 12 h post- injection, […] blood samples were collected into EDTA tubes and centrifuged at 6000 rpm for 10 min to obtain plasma. A fluorescence spectrophotometer with excitation and emission wavelengths of 745 nm and 840 nm was used to measure the ICG of the supernatant. The ICG content in the plasma was then assayed.

popliteal (PO) LN = test: NIR fluorescence LN imaging of normal mice; type: in vivo, BALB/c nude mice; conditions: intradermal injection into right paw, ICG 1.0 mg/kg
Description: For the SLN metastasis model, 1 × 10^7 HeLa-luc cells in 15 μL PBS were injected into the right hock of 5-week-old BALB/c-nude mice. The mice were monitored by BLI weekly to detect tumor metastases. After 1 month, tumor was about 5 mm with PO LN metastasis. HeLa-bearing mice were divided two groups randomly (n=10) and injected ITM and IM micelles via foot at equivalent ICG dose of 2 μg. At designed time points (5 min, 30 min, 1 h, 12 h and 24 h), the NIR fluorescence images in vivo were obtained. At 30 min and 1 h post injection, 2 mice from each group were randomly sacrificed and the excised main LNs were imaged. After 24 h post injection, LNs and main organs (heart, liver, spleen, lung, and kidney) were handled as described. In the same way, normal mice were divided into two groups randomly (n=5) and injected intradermally ITM or IM via foot. The NIR fluorescence images were acquired as mentioned above.

fluorescence intensity remaining, of initial value [1]: less than 50%
Cmax ([2]; BALB/c-nude, mouse, iv): 134 ng/mL
MRT ([2]; BALB/c-nude, mouse, iv): 268 min
Tmax ([2]; BALB/c-nude, mouse, iv): 5 min
clearance ([2]; BALB/c-nude, mouse, iv): 18 mL/min/kg
half-life ([2]; BALB/c-nude, mouse, iv): 4 min
AUC(0-t) ([2]; BALB/c-nude, mouse, iv, read-out: AUC (0-12 h) in plasma (converted)): 224 ng·h/mL
V ([2]; i.v.): 21.358 L/kg
SMILES: CC1(C)C(/C=C/C=C/C=C/C=C2\N(CCCCS(=O)(=O)O)c3ccc4ccccc4c3C2(C)C)=[N+](CCCCS(=O)(=O)[O-])c2ccc3ccccc3c21 [Free ICG, indocyanine green]
time within which the NIR fluorescence signal in SLN decreased quickly (popliteal (PO) LN): ≤ 1 h

Reference: PMC6831285, “TMTP1-modified Indocyanine Green-loaded Polymeric Micelles for Targeted Imaging of Cervical Cancer and Metastasis Sentinel Lymph Node in vivo” (Theranostics, 2019)
